Laboratory results reported in US20140323307A1, “MANAGEMENT METHOD AND MANAGEMENT SYSTEM FOR BIOMASS AT PLANT HARVEST” (Japan Science and Technology Agency, priority 2011, published 2014).

Tested on: Arabidopsis thaliana
Conditions: linolenic acid-deficient, linolenic acid-excess and wild-type strains; 2 mM GSH or 1 mM GSSG aqueous solution, 25 mL per three individuals, once a week for 5 weeks; FIG. 9
Experimental: Each strain of Arabidopsis thaliana tested here was grown in the following manner: seeds of three individuals of each strain of Arabidopsis thaliana were sown in a pot, and grown from when the seeds were sown to when the individuals bore seeds (grown for about 2.5 to 3 months) under the controlled condition where light intensity was approximately 100 μE·m^−2·S^−1, the light and dark cycle was set to 16 hours and 8 hours, and the temperature was 22° C. […] Above-ground parts of the obtained Arabidopsis thaliana were harvested, and dried for five or more days in a dry house having a humidity of 5% and a temperature of 20° C. After they were thoroughly dried, the total biomass of above-ground parts at harvest (dry weight of the entire above-ground parts) and seed yield (dry weight of harvested seeds) for each pot were measured. As for the linolenic acid-deficient strain (triple mutant), only the total biomass of above-ground parts at harvest was measured.

For `N[C@@H](CCC(=O)N[C@@H](CS)C(=O)NCC(=O)O)C(=O)O` [glutathione], the “biomass at harvest (total biomass of above-ground parts, dry weight; seed yield) compared to the controls” value was “significantly increased in biomass”.
